As a reminder, the CC50 is the concentration that lowers cell viability or growth by half. In general, IC50 refers to the concentration that gives 50% inhibition. By EC50 is commonly meant the concentration that produces a half-maximal response. By AC50 is commonly meant the concentration giving half of the maximal activity seen.

Experimental findings from ChEMBL document CHEMBL1201862, “PubChem BioAssay data set” (2004) are described below.

Assay [1] is described as follows: THP-1 cell cytotoxicity, dose response, cytotoxicity control for non-replicating M. tuberculosis project (AID 489025). The class given is functional.
Assay [2] is described as follows: Vero E6 cell cytotoxicity, dose response, cytotoxicity control for non-replicating M. tuberculosis project, secondary assay (AID 492998). The class given is functional, VeroE6. The settings on record: Vero C1008.
The next assay can be described thus: cells. The class given is functional.
A further assay concerns the target T1, Aminopeptidase N (Plasmodium falciparum FcB1/Columbia, UniProt O96935).
T1 sequence (O96935 whole entry): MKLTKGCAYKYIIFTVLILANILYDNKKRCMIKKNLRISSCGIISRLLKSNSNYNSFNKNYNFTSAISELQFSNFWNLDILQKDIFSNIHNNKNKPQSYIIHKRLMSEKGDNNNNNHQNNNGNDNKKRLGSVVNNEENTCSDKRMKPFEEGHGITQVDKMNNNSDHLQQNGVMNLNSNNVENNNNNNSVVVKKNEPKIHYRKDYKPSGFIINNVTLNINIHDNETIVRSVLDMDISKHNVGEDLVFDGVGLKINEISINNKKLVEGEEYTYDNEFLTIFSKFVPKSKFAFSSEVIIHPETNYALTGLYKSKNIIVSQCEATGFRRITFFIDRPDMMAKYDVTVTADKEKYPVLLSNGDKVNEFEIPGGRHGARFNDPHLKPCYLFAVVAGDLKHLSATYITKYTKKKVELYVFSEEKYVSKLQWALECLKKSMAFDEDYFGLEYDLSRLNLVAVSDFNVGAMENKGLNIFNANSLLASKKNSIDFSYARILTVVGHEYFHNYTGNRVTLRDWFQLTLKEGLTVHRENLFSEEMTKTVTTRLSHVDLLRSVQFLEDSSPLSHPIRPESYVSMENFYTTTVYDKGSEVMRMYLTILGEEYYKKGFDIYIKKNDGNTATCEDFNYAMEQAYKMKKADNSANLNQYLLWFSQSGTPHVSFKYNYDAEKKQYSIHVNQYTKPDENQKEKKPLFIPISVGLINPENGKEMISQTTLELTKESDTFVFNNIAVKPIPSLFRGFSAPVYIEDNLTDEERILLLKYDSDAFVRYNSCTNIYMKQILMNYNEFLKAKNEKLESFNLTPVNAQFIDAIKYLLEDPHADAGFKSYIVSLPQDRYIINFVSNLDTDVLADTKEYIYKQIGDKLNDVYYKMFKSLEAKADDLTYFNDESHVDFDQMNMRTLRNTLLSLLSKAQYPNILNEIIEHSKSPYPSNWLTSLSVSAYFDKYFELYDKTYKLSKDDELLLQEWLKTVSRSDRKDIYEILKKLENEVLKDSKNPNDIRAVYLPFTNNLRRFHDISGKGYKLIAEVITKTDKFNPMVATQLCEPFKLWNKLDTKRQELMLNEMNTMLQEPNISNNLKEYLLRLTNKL
The assay can be described thus: malaria alanyl aminopeptidase activity blockers – biochemical, fluorogenic H-Leu-NHMec substrate, 1536-well (AID 1445). Also on record: species or system Plasmodium falciparum 3D7, 3D7.

In another assay the target is Nonstructural protein 1 (Influenza A virus, UniProt Q194T2). The class given is functional, Influenza A virus (A/California/07/2009(H1N1)).
Assay [3] in a line: Trypanosoma cruzi growth suppression in host cells – NIH3T3 host cells, beta-gal luminescence, confirmation (AID 2044).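 Also: intracellular parasites grown in NIH/3T3 mouse fibroblasts as host cells; luminescent beta-galactosidase reporter signal from transgenic T. cruzi replicating inside host cells; inhibitors lower the luminescence signal.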 The class given is functional, cell-based.
Assay [4] is described as follows: NIH3T3 cell viability loss – ATP luminescence, mouse fibroblasts, counter-screen, dose response (AID 2010).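 Also: cells exposed to compound for about 90 hours before reading.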 The class given is functional, cell-based. A general note: Counterscreens check selectivity or assay interference.
The target of assay [5] is T2, Replicative DNA helicase DnaB (Mycobacterium tuberculosis, UniProt P9WMR3).
T2 sequence (P9WMR3 whole entry): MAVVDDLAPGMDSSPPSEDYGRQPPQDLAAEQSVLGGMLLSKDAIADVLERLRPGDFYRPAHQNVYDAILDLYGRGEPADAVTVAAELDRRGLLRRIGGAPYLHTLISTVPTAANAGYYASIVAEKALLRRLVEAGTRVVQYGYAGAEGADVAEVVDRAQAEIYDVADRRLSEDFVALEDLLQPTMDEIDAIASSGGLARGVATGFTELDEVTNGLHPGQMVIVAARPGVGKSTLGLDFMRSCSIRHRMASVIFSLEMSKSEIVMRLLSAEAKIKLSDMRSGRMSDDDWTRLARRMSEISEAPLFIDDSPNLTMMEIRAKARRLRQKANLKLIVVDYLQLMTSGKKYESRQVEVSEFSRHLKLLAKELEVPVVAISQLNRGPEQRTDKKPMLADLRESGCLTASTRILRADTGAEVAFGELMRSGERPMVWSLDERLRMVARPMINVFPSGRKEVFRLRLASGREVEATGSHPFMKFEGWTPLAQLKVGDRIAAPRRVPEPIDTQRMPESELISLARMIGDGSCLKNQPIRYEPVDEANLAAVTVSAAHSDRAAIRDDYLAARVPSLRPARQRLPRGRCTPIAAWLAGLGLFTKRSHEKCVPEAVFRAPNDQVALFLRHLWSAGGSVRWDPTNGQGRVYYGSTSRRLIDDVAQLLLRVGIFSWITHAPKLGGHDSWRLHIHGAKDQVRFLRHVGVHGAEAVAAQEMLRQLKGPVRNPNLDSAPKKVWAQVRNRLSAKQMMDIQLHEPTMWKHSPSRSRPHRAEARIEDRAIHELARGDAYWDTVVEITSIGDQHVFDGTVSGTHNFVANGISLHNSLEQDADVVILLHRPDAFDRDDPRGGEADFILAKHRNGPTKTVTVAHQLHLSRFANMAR
The assay can be described thus: DnaB intein splicing inhibitors, dose response, biochemical, cell-free fluorescence (AID 449749). The class given is functional.

The next assay deals with T3, Protein RecA (Mycobacterium tuberculosis, UniProt P9WHJ3).
T3 sequence (P9WHJ3 whole entry): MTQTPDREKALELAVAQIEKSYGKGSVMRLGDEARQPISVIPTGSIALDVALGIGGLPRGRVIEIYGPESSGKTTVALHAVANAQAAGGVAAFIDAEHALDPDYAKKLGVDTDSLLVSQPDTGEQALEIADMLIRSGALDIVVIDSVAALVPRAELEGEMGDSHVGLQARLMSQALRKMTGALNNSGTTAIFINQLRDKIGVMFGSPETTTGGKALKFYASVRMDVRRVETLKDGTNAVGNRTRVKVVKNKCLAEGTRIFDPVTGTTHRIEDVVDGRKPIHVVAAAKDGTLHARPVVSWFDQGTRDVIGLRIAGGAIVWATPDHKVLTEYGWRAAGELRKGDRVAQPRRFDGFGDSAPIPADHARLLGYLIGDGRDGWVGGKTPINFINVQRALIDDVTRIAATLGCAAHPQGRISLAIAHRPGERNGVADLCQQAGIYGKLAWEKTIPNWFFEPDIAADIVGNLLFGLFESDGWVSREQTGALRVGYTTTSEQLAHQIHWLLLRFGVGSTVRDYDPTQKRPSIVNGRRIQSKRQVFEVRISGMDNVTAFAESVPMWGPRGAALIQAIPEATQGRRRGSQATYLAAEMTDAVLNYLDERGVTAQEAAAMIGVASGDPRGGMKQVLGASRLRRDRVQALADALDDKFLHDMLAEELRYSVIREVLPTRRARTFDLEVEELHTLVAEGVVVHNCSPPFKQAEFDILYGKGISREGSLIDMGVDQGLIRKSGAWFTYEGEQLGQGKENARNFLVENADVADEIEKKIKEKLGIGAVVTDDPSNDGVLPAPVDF
The assay can be described thus: Fluorescence Cell-Free Homogeneous Dose Retest to Identify Inhibitors of RecA-Intein Splicing Activity. [Related pubchem assays (depositor defined):AID2097, AID2223, AID489010, AID492950]. The class given is functional.

The target of another assay is Genome polyprotein (dengue virus type 2, UniProt P29990). Briefly: flavivirus cap methylation enzyme inhibition – biochemical, confirmation dose response, primary screen (AID 588689). The class given is functional.
In assay [6] the target is T4, Ubiquitin-conjugating enzyme E2 N (Homo sapiens, UniProt P61088).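 Also: Dose-response confirmation in a TR-FRET assay detecting UBC13-driven polyubiquitin chain formation, inhibition measured.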
T4 sequence (P61088 whole entry): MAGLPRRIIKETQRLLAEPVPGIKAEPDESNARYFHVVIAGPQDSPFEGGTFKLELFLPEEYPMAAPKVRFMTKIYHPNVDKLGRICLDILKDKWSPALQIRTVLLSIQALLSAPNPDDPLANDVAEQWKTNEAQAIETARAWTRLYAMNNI
The class given is functional.

Active and inactive are the calls of the source. Bounds are passed on as bounds.

Genome polyprotein, sequence (P29990 2492-3391 limits assumed): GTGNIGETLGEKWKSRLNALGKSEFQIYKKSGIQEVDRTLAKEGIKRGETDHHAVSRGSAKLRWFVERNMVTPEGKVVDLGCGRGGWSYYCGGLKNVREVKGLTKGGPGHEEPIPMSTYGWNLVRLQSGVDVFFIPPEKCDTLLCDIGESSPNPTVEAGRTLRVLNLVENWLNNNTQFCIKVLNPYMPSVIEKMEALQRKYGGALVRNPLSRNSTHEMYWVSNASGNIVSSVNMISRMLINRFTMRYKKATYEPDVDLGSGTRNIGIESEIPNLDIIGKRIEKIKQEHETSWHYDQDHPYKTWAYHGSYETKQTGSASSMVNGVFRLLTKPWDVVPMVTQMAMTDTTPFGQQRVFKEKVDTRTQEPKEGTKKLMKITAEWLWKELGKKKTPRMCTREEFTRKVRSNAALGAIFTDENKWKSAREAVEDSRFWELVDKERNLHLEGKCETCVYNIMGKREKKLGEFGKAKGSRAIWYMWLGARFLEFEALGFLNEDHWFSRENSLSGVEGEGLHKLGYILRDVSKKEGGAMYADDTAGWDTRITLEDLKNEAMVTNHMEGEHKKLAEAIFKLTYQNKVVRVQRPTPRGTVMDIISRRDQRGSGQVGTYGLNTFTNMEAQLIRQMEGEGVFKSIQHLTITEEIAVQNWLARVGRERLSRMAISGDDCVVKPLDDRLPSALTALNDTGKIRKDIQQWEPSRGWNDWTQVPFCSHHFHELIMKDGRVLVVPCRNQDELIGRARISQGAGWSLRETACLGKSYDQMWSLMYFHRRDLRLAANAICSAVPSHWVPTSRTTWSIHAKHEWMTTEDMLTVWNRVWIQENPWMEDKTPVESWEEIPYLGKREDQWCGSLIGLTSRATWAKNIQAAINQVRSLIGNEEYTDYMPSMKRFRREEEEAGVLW
Nonstructural protein 1, sequence (Q194T2 whole entry): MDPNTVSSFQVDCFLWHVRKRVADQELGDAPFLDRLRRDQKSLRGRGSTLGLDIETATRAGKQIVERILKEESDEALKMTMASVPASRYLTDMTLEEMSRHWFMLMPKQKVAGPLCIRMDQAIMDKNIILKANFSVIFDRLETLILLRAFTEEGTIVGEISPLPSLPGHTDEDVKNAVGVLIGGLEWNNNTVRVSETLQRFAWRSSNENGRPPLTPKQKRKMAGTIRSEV

In the case of `Oc1c2c(nc3c(-c4ccccc4)cnn13)CCCC2`, the values for the CC50 in assay [1] and in [2] were > 40 µM (active) and > 20 µM (active), respectively. For the same compound, in “cells”, the IC50 is 44 µM (active).

For the compound `O=C(CC(=O)c1ccccc1O)c1cccc(F)c1`, the CC50 in assay [1] is > 40 µM (active); in [2], 16.5 µM (active). The IC50 in “cells” was 17.4 µM (active).

`O=C1c2cccc3cccc(c23)C(=O)N1CCCc1nnc(S)n1-c1ccccc1`: on Aminopeptidase N, the IC50 is 17.9 µM (active).

For `O=C(N/N=C/c1ccccc1C(=O)O)c1cc(-c2ccc3c4c(cccc24)CC3)[nH]n1`, the IC50 on Aminopeptidase N was 85.2 µM (active).

`COc1ccc(CCCC(=O)NCc2ccccc2)cc1C`: the figures for the CC50 in assay [1] and in assay [2] were 9.44 µM (active) and > 20 µM (active), respectively.

As to `Cc1ccsc1C(C(=O)NC1CCCCC1)N(C(=O)c1csnn1)C1CC1` (stereo unspecified), the half-maximal inhibitory concentration (IC50) at Aminopeptidase N is 87.7 µM (active).

With `CCCCN(CC)Cc1c(O)ccc2c3c(c(=O)oc12)CCC3`, the IC50 on Aminopeptidase N was 57.7 µM (active).

Consider `COc1cc(/C=C2\SC(c3ccccc3)=NC2=O)cc(Cl)c1O`, for which the concentration for half-maximal inhibition (IC50) on Aminopeptidase N is 20 µM (active); at Nonstructural protein 1 it was 12.7 µM (active).

Consider `O=C(Nc1ccccc1N1CCN(C(=O)c2ccc(Cl)cc2)CC1)c1ccc([N+](=O)[O-])o1`, for which the EC50 in [3] is 1.32 µM (active); in assay [4] it was 37.2 µM (active). Further, the CC50 in assay [1] is 12.8 µM (active); in [2] it was 5.96 µM (active).

With `Cc1oc2cc([N+](=O)[O-])c(O)c([N+](=O)[O-])c2c1C(=O)c1ccc(Br)cc1`, the IC50 on Aminopeptidase N is 77 µM (active); on Genome polyprotein, 45.2 µM (active). Moreover, the AC50 in assay [5] was 8.65 µM (active). Besides, the 50% effective concentration (EC50) at Protein RecA is 7.96 µM (active).

`CCc1ccc(OCC(=O)NNC(=O)c2cnccn2)c(Br)c1`: the CC50 is > 40 µM (active) in assay [1] and 18.8 µM (active) in [2]. In addition, the IC50 is > 20 µM (inactive) in [6] and 9.66 µM (active) in “cells”.
